Measurements from patent US20240158446A1, “CYCLIC COMPOUND HAVING SELECTIVE INHIBITORY ACTION ON KRAS OVER HRAS AND NRAS” (CHUGAI SEIYAKU KABUSHIKI KAISHA, priority 2021, published 2024).
Read-outs that look alike come from different tables or passages of the source.

Assays:
[1] = target: GDP-bound KRAS wild-type protein (Homo sapiens, UniProt P01116); test: Binding to KRAS by surface plasmon resonance (SPR), Single Cycle Kinetics; conditions: GDP-bound KRAS wild-type protein, read-out: KRAS KD
Chain of GDP-bound KRAS wild-type protein (P01116 whole entry): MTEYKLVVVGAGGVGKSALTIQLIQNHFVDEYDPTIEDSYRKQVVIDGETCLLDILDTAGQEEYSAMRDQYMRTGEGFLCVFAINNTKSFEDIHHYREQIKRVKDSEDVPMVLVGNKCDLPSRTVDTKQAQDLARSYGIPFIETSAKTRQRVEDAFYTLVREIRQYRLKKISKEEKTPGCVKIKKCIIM

[2] = target: GDP-bound NRAS wild-type protein (Homo sapiens, UniProt P01111); test: Binding to NRAS by surface plasmon resonance (SPR), Single Cycle Kinetics; conditions: for NRAS/KRAS (ratio of KD value for NRAS to KD value for KRAS): SPR, GDP-bound NRAS wild-type protein vs GDP-bound KRAS wild-type protein
Chain of GDP-bound NRAS wild-type protein (P01111 whole entry): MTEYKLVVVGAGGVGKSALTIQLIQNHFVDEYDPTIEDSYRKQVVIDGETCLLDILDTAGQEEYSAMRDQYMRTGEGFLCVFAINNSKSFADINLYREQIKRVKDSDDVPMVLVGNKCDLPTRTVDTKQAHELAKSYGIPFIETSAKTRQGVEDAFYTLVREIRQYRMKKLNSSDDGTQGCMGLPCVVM

[3] = target: GDP-bound HRAS wild-type protein (Homo sapiens, UniProt P01112); test: Binding to HRAS by surface plasmon resonance (SPR), Single Cycle Kinetics; conditions: for HRAS/KRAS (ratio of KD value for HRAS to KD value for KRAS): SPR, GDP-bound HRAS wild-type protein vs GDP-bound KRAS wild-type protein
Chain of GDP-bound HRAS wild-type protein (P01112 whole entry): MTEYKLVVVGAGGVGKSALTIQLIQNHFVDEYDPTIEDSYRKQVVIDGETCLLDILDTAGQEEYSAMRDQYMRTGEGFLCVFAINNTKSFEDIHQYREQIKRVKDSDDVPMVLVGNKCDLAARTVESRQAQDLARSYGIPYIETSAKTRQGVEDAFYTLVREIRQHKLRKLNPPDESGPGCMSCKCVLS

[4] = system: human lung cancer strain NCI-H441;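 also: cell proliferation inhibition after four days measured by CellTiter-Glo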
[5] = SPR, Single Cycle Kinetics, 1:1 binding model

Row | SMILES | Kd [1, 5] | IC50 [4] | Kd ([1]; SPR, Single Cycle Kinetics) | Kd ([1]; SPR Single Cycle Kinetics, 1:1 binding model) | NRAS/KRAS (ratio of KD value for NRAS to KD value for KRAS) ([2]; KD ratio class) | HRAS/KRAS (ratio of KD value for HRAS to KD value for KRAS) ([3]; KD ratio class) | NRAS/KRAS (ratio of KD value for NRAS to KD value for KRAS) [2] | HRAS/KRAS (ratio of KD value for HRAS to KD value for KRAS) [3] | NRAS/KRAS (ratio of KD value with respect to GDP-bound NRAS wild-type protein to KD value with respect to KRAS) ([2]; SPR KD ratio NRAS/KRAS, class symbols) | HRAS/KRAS (ratio of KD value with respect to GDP-bound HRAS wild-type protein to KD value with respect to KRAS) ([3]; SPR KD ratio HRAS/KRAS, class symbols)
1 | CCO[C@@H]1C[C@H]2C(=O)NC3(CCC3)C(=O)N(C)[C@@H](C(CC)CC)C(=O)N(C)[C@H](C(=O)N(C)C)CC(=O)N(C)[C@@H](CC3CC3)C(=O)N[C@@H]([C@@H](C)CC)C(=O)N(C)CC(=O)N(C)[C@H]3C/C=C\CCN(C3=O)[C@@H](Cc3ccc(C(F)(F)F)cc3)C(=O)N(C)CC(=O)N[C@@H](CCc3ccc(C(F)(F)F)c(OC)c3)C(=O)N2C1 [PP1211] | 0.27 nM | 26.8 nM | – | – | A (a compound having 10 or more and less than 20 is denoted as A) | B (a compound having 3 or more and less than 10 is denoted as B) | – | – | – | –
2 | CC[C@H](C)[C@@H]1NC(=O)[C@@H]2CCC/C=C/c3ccc(cc3)C[C@@H](C(=O)N(C)CC(=O)N[C@@H](CCc3ccc(Cl)c(Cl)c3)C(=O)N3C[C@H](OC4CCC4)C[C@H]3C(=O)NC3(CC(C)(C)C3)C(=O)N(C)[C@@H](C3CCCC3)C(=O)N(C)[C@H](C(=O)N(C)CC)CC(=O)N2C)N2CC/C=C\C[C@@H](C2=O)N(C)C(=O)CN(C)C1=O [PP3058] | – | 21.2 nM | 0.21 nM | – | – | – | A (a compound having 10 or more and less than 20 is denoted as A) | A (a compound having 10 or more and less than 20 is denoted as A) | – | –
3 | CC[C@H](C)[C@@H]1NC(=O)[C@H](COC)N(C)C(=O)C[C@@H](C(=O)N2CCOCC2)N(C)C(=O)[C@H](C2CCCC2)N(C)C(=O)C2(CCC2)NC(=O)[C@@H]2CCCN2C(=O)[C@H](CCc2cc(F)c(C(F)(F)F)c(F)c2)NC(=O)CN(C)C(=O)[C@H](Cc2ccc(C(F)(F)F)cc2)N2CCCCC[C@@H](C2=O)N(C)C(=O)CNC1=O [PP0860] | – | 143 nM | 1.1 nM | – | – | – | B (a compound having 3 or more and less than 10 is denoted as B) | B (a compound having 3 or more and less than 10 is denoted as B) | – | –
4 | CCOC[C@H]1C(=O)N[C@@H]([C@@H](C)CC)C(=O)N(C)CC(=O)N(C)[C@H]2C/C=C\CCN(C2=O)[C@@H](CC2CCCCC2)C(=O)N(C)CC(=O)N[C@@H](CCc2ccc(C(F)(F)F)c(Cl)c2)C(=O)N2C[C@H](OCC)C[C@H]2C(=O)NC2(CC(C)(C)C2)C(=O)N(C)[C@@H](C(CC)CC)C(=O)N(C)[C@H](C(=O)N(C)C)CC(=O)N1C [PP2488] | – | 171 nM | 1.6 nM | – | – | – | A (a compound having 10 or more and less than 20 is denoted as A) | A (a compound having 10 or more and less than 20 is denoted as A) | – | –
5 | CCO[C@@H]1C[C@H]2C(=O)NC3(CCC3)C(=O)N(C)[C@@H](C3CCCC3)C(=O)N(C)[C@H](C(=O)N(C)C)CC(=O)N(C)[C@@H](CC3CC3)C(=O)N[C@@H]([C@@H](C)CC)C(=O)N(C)CC(=O)N(C)[C@H]3C/C=C\CCN(C3=O)[C@@H](Cc3ccc(F)cc3)C(=O)N(C)CC(=O)N[C@@H](CCc3ccc(Cl)c(Cl)c3)C(=O)N2C1 [PP1478] | 0.34 nM | 102 nM | – | – | A (a compound having 10 or more and less than 20 is denoted as A) | A (a compound having 10 or more and less than 20 is denoted as A) | – | – | – | –
6 | CCO[C@@H]1C[C@H]2C(=O)NC3(CCCC3)C(=O)N(C)[C@@H](C3CCCC3)C(=O)N(C)[C@H](C(=O)N3CCOCC3)CC(=O)N(C)[C@@H](COC)C(=O)N[C@@H]([C@@H](C)CC)C(=O)NCC(=O)N(C)[C@H]3CCCCCN(C3=O)[C@@H](Cc3ccc(C(F)(F)F)cc3)C(=O)N(C)CC(=O)N[C@@H](CCc3cc(F)c(C(F)(F)F)c(F)c3)C(=O)N2C1 [PP0862] | – | 81.1 nM | 1.1 nM | – | – | – | B (a compound having 3 or more and less than 10 is denoted as B) | B (a compound having 3 or more and less than 10 is denoted as B) | – | –

Second part, led by results:

Row | Kd [1, 5] | IC50 [4] | Kd ([1]; SPR, Single Cycle Kinetics) | Kd ([1]; SPR Single Cycle Kinetics, 1:1 binding model) | SMILES | NRAS/KRAS (ratio of KD value for NRAS to KD value for KRAS) ([2]; KD ratio class) | HRAS/KRAS (ratio of KD value for HRAS to KD value for KRAS) ([3]; KD ratio class) | NRAS/KRAS (ratio of KD value for NRAS to KD value for KRAS) [2] | HRAS/KRAS (ratio of KD value for HRAS to KD value for KRAS) [3] | NRAS/KRAS (ratio of KD value with respect to GDP-bound NRAS wild-type protein to KD value with respect to KRAS) ([2]; SPR KD ratio NRAS/KRAS, class symbols) | HRAS/KRAS (ratio of KD value with respect to GDP-bound HRAS wild-type protein to KD value with respect to KRAS) ([3]; SPR KD ratio HRAS/KRAS, class symbols)
7 | – | 6.6 nM | 0.12 nM | – | CCOC[C@H]1C(=O)N[C@@H]([C@@H](C)CC)C(=O)N(C)CC(=O)N(C)[C@H]2C/C=C\CCN(C2=O)[C@@H](Cc2ccc(C)cc2)C(=O)N(C)CC(=O)N[C@@H](CCc2cc(F)c(C(F)(F)F)c(F)c2)C(=O)N2C[C@@H](C)C[C@H]2C(=O)NC2(CC(C)(C)C2)C(=O)N(C)[C@@H](C2CCCC2)C(=O)N(C)[C@H](C(=O)N(C)C)CC(=O)N1C [PP2439] | – | – | A (a compound having 10 or more and less than 20 is denoted as A) | A (a compound having 10 or more and less than 20 is denoted as A) | – | –
8 | – | 17.6 nM | – | 0.57 nM | CCC[C@H]1C(=O)N[C@@H]([C@@H](C)CC)C(=O)N(C2CC2)CC(=O)N(C)[C@H]2C/C=C\CCN(C2=O)[C@@H](CC2CCC(F)(F)CC2)C(=O)N(C)CC(=O)N[C@@H](CCc2cc(F)c(C(F)(F)F)c(F)c2)C(=O)N2C[C@H](OCC)C[C@H]2C(=O)NC2(CC(C)(C)C2)C(=O)N(C)[C@@H](C2CCCC2)C(=O)N(C)[C@H](C(=O)N(C)C)CC(=O)N1C [PP2566] | – | – | – | – | A (a compound having 10 or more and less than 20 is denoted as A) | B (a compound having 3 or more and less than 10 is denoted as B)
9 | – | 74.3 nM | 1 nM | – | CCCOC[C@H]1C(=O)N[C@@H]([C@@H](C)CC)C(=O)N(C)CC(=O)N(C)[C@H]2C/C=C\CCN(C2=O)[C@@H](CC2CCC(F)(F)CC2)C(=O)N(C)CC(=O)N[C@@H](CCc2ccc(C(F)(F)F)c(Cl)c2)C(=O)N2C[C@H](OCC)C[C@H]2C(=O)NC2(CC(C)(C)C2)C(=O)N(C)[C@@H](C(CC)CC)C(=O)N(C)[C@H](C(=O)N(C)C)CC(=O)N1C [PP2484] | – | – | A (a compound having 10 or more and less than 20 is denoted as A) | A (a compound having 10 or more and less than 20 is denoted as A) | – | –
10 | 0.045 nM | 12.2 nM | – | – | CCOC[C@H]1C(=O)N[C@@H]([C@@H](C)CC)C(=O)N(C)CC(=O)N(C)[C@H]2C/C=C\CCN(C2=O)[C@@H](Cc2ccc(C(F)(F)F)cc2)C(=O)N(C)CC(=O)N[C@@H](CCc2cc(F)c(C(F)(F)F)c(F)c2)C(=O)N2C[C@H](OCC)C[C@H]2C(=O)NC2(CCC2)C(=O)N(C)[C@@H](C2CCCC2)C(=O)N(C)[C@H](C(=O)N(C)C)CC(=O)N1C [PP1266, (2S,8S,12R,14S,20S,23S,27S,30S,36S,38Z)-20-cyclopentyl-8-[2-[3,5-difluoro-4-(trifluoromethyl)phenyl]ethyl]-12-ethoxy-27-(ethoxymethyl)-N,N,4,19,22,26,32,35-octamethyl-30-[(1S)-1-methylpropyl]-3,6,9,15,18,21,25,28,31,34,42-undecaoxo-2-[[4-(trifluoromethyl)phenyl]methyl]spiro[1,4,7,10,16,19,22,26,29,32,35-undecazatricyclo[34.5.1.0^10,14]dotetracont-38-ene-17,1′-cyclobutane]-23-carboxamide] | A (a compound having 10 or more and less than 20 is denoted as A) | A (a compound having 10 or more and less than 20 is denoted as A) | – | – | – | –
11 | – | 72.2 nM | 1.3 nM | – | CCO[C@@H]1C[C@H]2C(=O)NC3(CC(C)(C)C3)C(=O)N(C)[C@@H](C(CC)CC)C(=O)N(C)[C@H](C(=O)N(C)C)CC(=O)N(C)[C@@H](COC)C(=O)N[C@@H]([C@@H](C)CC)C(=O)N(C)CC(=O)N(C)[C@H]3C/C=C\CCN(C3=O)[C@@H](CC3CCCCC3)C(=O)N(C)CC(=O)N[C@@H](CCc3ccc(C(F)(F)F)c(Cl)c3)C(=O)N2C1 [PP2468] | – | – | AA (a compound having 20 or more is denoted as AA) | A (a compound having 10 or more and less than 20 is denoted as A) | – | –
12 | – | 32.3 nM | 0.59 nM | – | CCO[C@@H]1C[C@H]2C(=O)NC3(CC(C)(C)C3)C(=O)N(C)[C@@H](C(CC)CC)C(=O)N(C)[C@H](C(=O)N(C)C)CC(=O)N(C)[C@@H](COC)C(=O)N[C@@H]([C@@H](C)CC)C(=O)N(C)CC(=O)N(C)[C@H]3C/C=C\CCN(C3=O)[C@@H](CC3CCC(F)(F)CC3)C(=O)N(C)CC(=O)N[C@@H](CCc3ccc(C(F)(F)F)c(Cl)c3)C(=O)N2C1 [PP2444] | – | – | A (a compound having 10 or more and less than 20 is denoted as A) | A (a compound having 10 or more and less than 20 is denoted as A) | – | –
13 | 0.21 nM | 43.5 nM | – | – | CCO[C@@H]1C[C@H]2C(=O)NC3(CCC3)C(=O)N(C)[C@@H](C3CCCC3)C(=O)N(C)[C@H](C(=O)N3CCCC3)CC(=O)N(C)[C@@H](CC3CC3)C(=O)N[C@@H]([C@@H](C)CC)C(=O)N(C)CC(=O)N(C)[C@H]3C/C=C\CCN(C3=O)[C@@H](Cc3ccc(C)cc3)C(=O)N(C)CC(=O)N[C@@H](CCc3cc(F)c(C(F)(F)F)c(F)c3)C(=O)N2C1 [PP1409] | A (a compound having 10 or more and less than 20 is denoted as A) | A (a compound having 10 or more and less than 20 is denoted as A) | – | – | – | –
